These are literature values, as cited in PMC8617627, “Novel DYRK1A Inhibitor Rescues Learning and Memory Deficits in a Mouse Model of Down Syndrome” (Pharmaceuticals, 2021).

Like-named read-outs stand apart in the source and are kept apart here.

For the series, the system named is 139-protein kinase panel. The following applies: no reference given, cited from earlier work.

With `COc1ccc2c(c1)[nH]c1c(C)nccc12` [harmine], the GINI-index (comparison value for harmine) is on record as 0.506.
On to `CN[C@@H]1C[C@H]2O[C@@](C)([C@@H]1OC)n1c3ccccc3c3c4c(c5c6ccccc6n2c5c31)C(=O)NC4` [staurosporine], for which the GINI-index (comparison value for staurosporine, with 10 uM ATP) was 0.093.
